Reference: patent publication US7446117B2, “Cox-2 inhibiting pyridine derivatives” (Glaxo Group Limited, priority 2002, dated 2008)

Each compound was assayed against T1, microsomal h-COX2 (Homo sapiens, UniProt P35354) (assay: Microsomal assay: inhibitory activity against microsomal h-COX2). Conditions: microsomal preparation from baculovirus infected SF9 cells; 1 hour incubation with compound; 0.1 μM arachidonic acid, 10 minutes; PGE2 by EIA; read-out: IC50 values for inhibition of COX-2.
T1 construct: made in house; host or cells: baculovirus infected SF9 cells (microsomal preparation)
T1 sequence (P35354 18-604): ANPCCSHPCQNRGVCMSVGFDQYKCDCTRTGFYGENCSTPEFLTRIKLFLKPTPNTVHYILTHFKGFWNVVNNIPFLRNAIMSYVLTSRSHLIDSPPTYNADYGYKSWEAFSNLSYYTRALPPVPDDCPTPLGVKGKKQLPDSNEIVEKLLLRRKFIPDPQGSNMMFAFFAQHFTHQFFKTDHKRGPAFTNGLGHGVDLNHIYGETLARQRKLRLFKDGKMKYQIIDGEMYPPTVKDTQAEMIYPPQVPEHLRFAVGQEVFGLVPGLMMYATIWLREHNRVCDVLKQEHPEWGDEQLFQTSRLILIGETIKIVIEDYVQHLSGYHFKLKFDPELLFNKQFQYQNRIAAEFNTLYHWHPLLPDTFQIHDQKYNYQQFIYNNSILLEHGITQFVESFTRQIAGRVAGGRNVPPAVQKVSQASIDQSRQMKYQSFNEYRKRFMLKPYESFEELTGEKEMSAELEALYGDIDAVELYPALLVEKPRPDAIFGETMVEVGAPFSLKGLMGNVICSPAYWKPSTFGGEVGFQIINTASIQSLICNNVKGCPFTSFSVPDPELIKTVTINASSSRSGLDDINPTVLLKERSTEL
Format: biochemical
Method: Biological Data Microsomal Assay
Inhibitory activity against microsomal h-COX2 was assessed against a microsomal preparation from baculovirus infected SF9 cells. An aliquot of microsomal preparation was thawed slowly on ice and a 1/40,000 dilution prepared from it into the assay buffer (sterile water, degassed with argon containing 100 mM HEPES (pH 7.4), 10 mM EDTA (pH7.4), 1 mM phenol, 1 mM reduced glutathione, 20 mg/ml gelatin and 0.001 mM Hematin). Once diluted the enzyme solution was then sonicated for 5 seconds (Branson sonicator, setting 4, 1 cm tip) to ensure a homogeneous suspension. 155 μl enzyme solution was then added to each well of a 96-well microtitre plate containing either 5 μl test compound (40× required test concentration) or 5 μl DMSO for controls. Plates were then mixed and incubated at room temperature for 1 hour. Following the incubation period, 40 μl of 0.5 μM arachidonic acid was added to each well to give a final concentration of 0.1 μM. Plates were then mixed and incubated for exactly 10 minutes (room temperature) prior to addition of 25 μl 1M HCl (hydrochloric acid) to each well to stop the reaction. 25 μl of 1M NaOH (sodium hydroxide) was then added to each well to neutralise the solution prior to determination of PGE2 levels by enzyme immunoassay (EIA).

IC50, ≤ 500 nM:
Cc1cc(NC2CCCC2)nc(-c2ccc(S(C)(=O)=O)cc2)c1 [Example 1, N-Cyclopentyl-4-methyl-6-[4-(methylsulfonyl)phenyl]pyridine-2-amine]
Cc1cc(OCc2ccccc2)nc(-c2ccc(S(C)(=O)=O)cc2)c1 [Example 2, 2-Benzyloxy-4-methyl-6-[4-(methylsulfonyl)phenyl]pyridine]
Cc1cc(-c2ccc(S(C)(=O)=O)cc2)nc(N(C)Cc2ccccc2)c1 [Example 3, N-Benzyl-N-methyl-4-methyl-6-[4-(methylsulfonyl)phenyl]pyridine-2-amine]
Cc1cc(NCc2ccc(Cl)cc2)nc(-c2ccc(S(C)(=O)=O)cc2)c1 [Example 4]
CN(Cc1ccccc1)c1cc(C(F)(F)F)cc(-c2ccc(S(C)(=O)=O)cc2)n1 [Example 5]
CS(=O)(=O)c1ccc(-c2cc(C(F)(F)F)cc(NCc3ccco3)n2)cc1 [Example 6]
Cc1cc(NCc2ccccc2)nc(-c2ccc(S(C)(=O)=O)cc2)c1 [Example 7]
CS(=O)(=O)c1ccc(-c2cc(C(F)(F)F)cc(NCC3CCCCC3)n2)cc1 [Example 8]
COc1ccc(Nc2cc(C)cc(-c3ccc(S(C)(=O)=O)cc3)n2)cc1 [Example 9]
Cc1cc(OCC(C)C)nc(-c2ccc(S(C)(=O)=O)cc2)c1 [Example 10]
Cc1cc(Oc2cccnc2)nc(-c2ccc(S(C)(=O)=O)cc2)c1 [Example 11]
C=CCNc1cc(C(F)(F)F)cc(-c2ccc(S(C)(=O)=O)cc2)n1 [Example 12]
Cc1cc(Nc2ccccc2Cl)nc(-c2ccc(S(C)(=O)=O)cc2)c1 [Example 13]
Cc1cc(NCc2cc(F)cc(F)c2)nc(-c2ccc(S(C)(=O)=O)cc2)c1 [Example 14]
Cc1cc(NCc2cccnc2)nc(-c2ccc(S(C)(=O)=O)cc2)c1 [Example 15]
COc1ccc(Nc2cc(C(F)(F)F)cc(-c3ccc(S(C)(=O)=O)cc3)n2)cc1 [Example 16]
Cc1cc(NC2CCCCC2)nc(-c2ccc(S(C)(=O)=O)cc2)c1 [Example 17]
CCCCNc1cc(C(F)(F)F)cc(-c2ccc(S(C)(=O)=O)cc2)n1 [Example 18]
CC(C)CNc1cc(C(F)(F)F)cc(-c2ccc(S(C)(=O)=O)cc2)n1 [Example 19]
COc1ccc(CNc2cc(C)cc(-c3ccc(S(C)(=O)=O)cc3)n2)cc1 [Example 20]
Cc1cc(NCc2ccc(F)cc2)nc(-c2ccc(S(C)(=O)=O)cc2)c1 [Example 21]
Cc1ccc(CNc2cc(C(F)(F)F)cc(-c3ccc(S(C)(=O)=O)cc3)n2)o1 [Example 22]
CCCCNc1cc(C)cc(-c2ccc(S(C)(=O)=O)cc2)n1 [Example 23]
Cc1cc(NCc2ccco2)nc(-c2ccc(S(C)(=O)=O)cc2)c1 [Example 24]
Cc1ccc(CNc2cc(C)cc(-c3ccc(S(C)(=O)=O)cc3)n2)cc1 [Example 25]
CS(=O)(=O)c1ccc(-c2cc(C(F)(F)F)cc(NC3CCCC3)n2)cc1 [Example 26]
Cc1cc(NCc2ccncc2)nc(-c2ccc(S(C)(=O)=O)cc2)c1 [Example 27]
Cc1cc(NCc2ccccn2)nc(-c2ccc(S(C)(=O)=O)cc2)c1 [Example 28]
CCOc1ccc(CNc2cc(C)cc(-c3ccc(S(C)(=O)=O)cc3)n2)cc1 [Example 30]
Cc1cc(NCC(C)C)nc(-c2ccc(S(C)(=O)=O)cc2)c1 [Example 31]
Cc1cc(Nc2ccc(F)cc2)nc(-c2ccc(S(C)(=O)=O)cc2)c1 [Example 43]
Cc1cc(NCc2cccs2)nc(-c2ccc(S(C)(=O)=O)cc2)c1 [Example 44]
CCc1cc(-c2ccc(S(C)(=O)=O)cc2)nc(N(C)Cc2ccccc2)c1 [Example 45]
CCc1cc(NCC2CCOCC2)nc(-c2ccc(S(C)(=O)=O)cc2)c1 [Example 46]
CCc1cc(NCC(C)C)nc(-c2ccc(S(C)(=O)=O)cc2)c1 [Example 47]
Cc1ccc(CNc2cc(C(F)(F)F)cc(-c3ccc(S(C)(=O)=O)cc3)n2)cc1 [Example 48]
Cc1ccccc1CNc1cc(C(F)(F)F)cc(-c2ccc(S(C)(=O)=O)cc2)n1 [Example 49]
CS(=O)(=O)c1ccc(-c2cc(C(F)(F)F)cc(NCc3ccccc3Cl)n2)cc1 [Example 50]
Cc1cnc(CNc2cc(C(F)(F)F)cc(-c3ccc(S(C)(=O)=O)cc3)n2)cn1 [Example 51]
C[C@H](Nc1cc(C(F)(F)F)cc(-c2ccc(S(C)(=O)=O)cc2)n1)c1ccccc1 [Example 52]
C[C@@H](Nc1cc(C(F)(F)F)cc(-c2ccc(S(C)(=O)=O)cc2)n1)c1ccccc1 [Example 53]
CS(=O)(=O)c1ccc(-c2cc(C(F)(F)F)cc(NC3CCCCC3)n2)cc1 [Example 54, N-cyclohexyl-4-(trifluoromethyl)-6-[4-(methylsulfonyl)phenyl]pyridine-2-amine]
COc1ccc(CNc2cc(C(F)(F)F)cc(-c3ccc(S(C)(=O)=O)cc3)n2)cc1 [Example 55]
Cc1cc(Nc2ccc(C)nc2)nc(-c2ccc(S(C)(=O)=O)cc2)c1 [Example 56]
Cc1ccc(-c2ccc(S(C)(=O)=O)cc2)nc1NCc1ccccc1 [Example 57]
Cc1cc(-c2ccc(S(C)(=O)=O)cc2)nc(N(C)Cc2ccccc2)c1C [Example 58]
Cc1cc(-c2ccc(S(C)(=O)=O)cc2)nc(NCc2ccccc2)c1C [Example 59]
Cc1cc(-c2ccc(S(C)(=O)=O)cc2)nc(NCC(C)C)c1C [Example 60]
CN(Cc1ccccc1)c1cccc(-c2ccc(S(C)(=O)=O)cc2)n1 [Example 61]
Cc1cc(-c2ccc(S(C)(=O)=O)cn2)nc(N(C)Cc2ccccc2)c1 [Example 62]
Cc1cc(-c2ccc(S(C)(=O)=O)cc2)nc(N2CCCCC2)c1C [Example 66]
Cc1cc(NCc2ccccc2)nc(-c2ccc(S(C)(=O)=O)c(F)c2)c1 [Example 67]
Cc1cc(-c2ccc(S(C)(=O)=O)cc2)nc(N(C)Cc2cccc(C)n2)c1 [Example 68]
CCc1cc(NCc2ccco2)nc(-c2ccc(S(C)(=O)=O)cc2)c1 [Example 69]
